Experimental findings from ChEMBL document CHEMBL4219035, “Synthesis of novel forskolin isoxazole derivatives with potent anti-cancer activity against breast cancer cell lines” (Bioorg Med Chem Lett, 2017) are described below.

One may read the IC50 as the point on the concentration scale where inhibition reaches its midpoint. Read a low IC50 as greater potency in that assay.

Holding throughout (format): functional, cell-based
For assay [1], the system named is BT-474. Put plainly: Antiproliferative activity against human BT474 cells after 48 hrs by Alamar blue assay. The conditions noted are these: BT-474, 48 h. On the technique in general: The colour change of resazurin is a common sign of viable cells or microbes.
Assay [2] relates to MCF7. The assay is described as follows: Antiproliferative activity against human MCF7 cells after 48 hrs by Alamar blue assay. The conditions noted are these: MCF7, 48 h.
Assay [3] relates to MCF7. Put plainly: Cytotoxicity against human MCF7 cells assessed as morphological changes after 48 hrs by microscopic analysis.

Activity calls are given as the source filed them. The rule behind the calls is not given here.

For the compound `C=C[C@@]1(C)CC(=O)[C@]2(O)[C@@]3(C)[C@@H](OCc4cc(-c5ccc(Cl)cc5)no4)CCC(C)(C)[C@@H]3[C@H](OC(C)=O)[C@H](O)[C@@]2(C)O1`, the results for the IC50 in assay [1] and in assay [2] were above 100 µM and 4 µM, respectively.
Consider `C=C[C@@]1(C)CC(=O)[C@]2(O)[C@@]3(C)[C@@H](OCc4cc(-c5ccc(OC)cc5)no4)CCC(C)(C)[C@@H]3[C@H](OC(C)=O)[C@H](O)[C@@]2(C)O1`, for which the values for the IC50 in assay [1] and in assay [2] were above 100 µM and 57.3 µM, respectively.
`C=C[C@@]1(C)CC(=O)[C@]2(O)[C@@]3(C)[C@@H](OCc4cc(-c5ccc(OCc6ccccc6)cc5)no4)CCC(C)(C)[C@@H]3[C@H](O)[C@H](OC(C)=O)[C@@]2(C)O1`: the result in assay [3] was Active. Moreover, the IC50 in assay [1] and in assay [2] was 0.5 µM in each case.
For the compound `COc1ccc(C2=NOC([C@@]3(C)CC(=O)[C@]4(O)[C@@]5(C)[C@@H](OCc6cc(-c7ccc(OC)c(OC)c7)no6)CCC(C)(C)[C@@H]5[C@H](O)[C@H](OC(C)=O)[C@@]4(C)O3)C2)cc1OC` (stereo partly specified), the IC50 in assay [1] was above 100 µM; in assay [2], 0.5 µM.
The like results for `C=C[C@@]1(C)CC(=O)[C@]2(O)[C@@]3(C)[C@@H](OCc4cc(-c5ccc(OCc6ccccc6)cc5)no4)CCC(C)(C)[C@@H]3[C@H](OC(C)=O)[C@H](O)[C@@]2(C)O1` were, in that order, above 100 µM and 84.6 µM.
Taken in the same sequence, the figures for `C=C[C@@]1(C)CC(=O)[C@]2(O)[C@@]3(C)[C@@H](OCc4cc(-c5ccc(C)cc5)no4)CCC(C)(C)[C@@H]3[C@H](O)[C@H](OC(C)=O)[C@@]2(C)O1` were 75 µM and 7 µM.
Consider `CC[C@@]1(C)CC(=O)[C@]2(O)[C@@]3(C)[C@@H](OCc4cc(-c5ccccc5)no4)CCC(C)(C)[C@@H]3[C@H](O)[C@H](OC(C)=O)[C@@]2(C)O1`, for which the results for the IC50 in assay [1] and in assay [2] were 9.1 µM and 2.6 µM, respectively.
Turning to `CC[C@@]1(C)CC(=O)[C@]2(O)[C@@]3(C)[C@@H](OCc4cc(-c5ccc(Cl)cc5)no4)CCC(C)(C)[C@@H]3[C@H](O)[C@H](OC(C)=O)[C@@]2(C)O1`, the IC50 in assay [1] was 7 µM; in assay [2], 1.6 µM.
In the case of `COc1ccc(C2=NOC([C@@]3(C)CC(=O)[C@]4(O)[C@@]5(C)[C@@H](OCc6cc(-c7ccc(OC)cc7)no6)CCC(C)(C)[C@@H]5[C@H](O)[C@H](OC(C)=O)[C@@]4(C)O3)C2)cc1` (stereo partly specified), the values for the IC50 in assay [1] and in assay [2] were 4.3 µM and 3 µM, respectively.
Regarding `C=C[C@@]1(C)CC(=O)[C@]2(O)[C@@]3(C)[C@@H](O)CCC(C)(C)[C@@H]3[C@H](O)[C@H](OC(C)=O)[C@@]2(C)O1` [COLFORSIN], the result in assay [3] was Active. The results for the IC50 in assay [1] and in assay [2] were above 100 µM and 63.3 µM, respectively.
For the compound `C=C[C@@]1(C)CC(=O)[C@]2(O)[C@@]3(C)[C@@H](OCc4cc(-c5ccc(OC)cc5)no4)CCC(C)(C)[C@@H]3[C@H](O)[C@H](OC(C)=O)[C@@]2(C)O1`, the result in assay [3] was Active. Besides, the IC50 stood at 4 µM in assay [1] and 0.5 µM in assay [2].
As for `COc1ccc(C2=NOC([C@@]3(C)CC(=O)[C@]4(O)[C@@]5(C)[C@@H](OCc6cc(-c7ccc(OC)c(OC)c7)no6)CCC(C)(C)[C@@H]5[C@H](OC(C)=O)[C@H](O)[C@@]4(C)O3)C2)cc1OC` (stereo partly specified), the results for the IC50 in assay [1] and in assay [2] were above 100 µM and 0.5 µM, respectively.
`C=C[C@@]1(C)CC(=O)[C@]2(O)[C@@]3(C)[C@@H](OCc4cc(-c5c(OC)cc(OC)cc5OC)no4)CCC(C)(C)[C@@H]3[C@H](O)[C@H](OC(C)=O)[C@@]2(C)O1`: the IC50 is above 100 µM in assay [1] and 0.5 µM in assay [2].
Turning to `CC[C@@]1(C)CC(=O)[C@]2(O)[C@@]3(C)[C@@H](OCc4cc(-c5cc(OC)c(OC)c(OC)c5)no4)CCC(C)(C)[C@@H]3[C@H](O)[C@H](OC(C)=O)[C@@]2(C)O1`, the IC50 amounted to 29.3 µM in assay [1] and 0.5 µM in assay [2].
For `C=C[C@@]1(C)CC(=O)[C@]2(O)[C@@]3(C)[C@@H](OCc4cc(-c5cc(OC)c(OC)c(OC)c5)no4)CCC(C)(C)[C@@H]3[C@H](O)[C@H](OC(C)=O)[C@@]2(C)O1`, the IC50 was above 100 µM in assay [1] and 55.3 µM in assay [2].
For `C#CCO[C@H]1CCC(C)(C)[C@@H]2[C@H](OC(C)=O)[C@H](O)[C@@]3(C)O[C@@](C)(C=C)CC(=O)[C@]3(O)[C@@]12C`, the figures for the IC50 in assay [1] and in assay [2] were above 100 µM and 30 µM, respectively.
Regarding `CC(=O)O[C@H]1[C@H]2C(C)(C)CC[C@H](OCc3cc(-c4ccc(OCc5ccccc5)cc4)no3)[C@]2(C)[C@@]2(O)C(=O)C[C@](C)(C3CC(c4ccc(OCc5ccccc5)cc4)=NO3)O[C@]2(C)[C@H]1O` (stereo partly specified), the IC50 in assay [1] is 1.3 µM; in assay [2], 3.3 µM.
Taken in the same sequence, the figures for `CC(=O)O[C@H]1[C@@H](O)[C@H]2C(C)(C)CC[C@H](OCc3cc(-c4ccccc4)no3)[C@]2(C)[C@@]2(O)C(=O)C[C@](C)(C3CC(c4ccccc4)=NO3)O[C@]12C` (stereo partly specified) were above 100 µM and 35.3 µM.
For `CC(=O)O[C@H]1[C@@H](O)[C@H]2C(C)(C)CC[C@H](OCc3cc(-c4ccc(OCc5ccccc5)cc4)no3)[C@]2(C)[C@@]2(O)C(=O)C[C@](C)(C3CC(c4ccc(OCc5ccccc5)cc4)=NO3)O[C@]12C` (stereo partly specified), the IC50 was 79.6 µM in assay [1] and 52.6 µM in assay [2].
Take `C#CCO[C@H]1CCC(C)(C)[C@@H]2[C@H](O)[C@H](OC(C)=O)[C@@]3(C)O[C@@](C)(CC)CC(=O)[C@]3(O)[C@@]12C`: the IC50 in assay [1] was above 100 µM; in assay [2] it was 10 µM.
In the case of `C=C[C@@]1(C)CC(=O)[C@]2(O)[C@@]3(C)[C@@H](OCc4cc(-c5ccc(Cl)cc5)no4)CCC(C)(C)[C@@H]3[C@H](O)[C@H](OC(C)=O)[C@@]2(C)O1`, the results for the IC50 in assay [1] and in assay [2] were above 100 µM and 5.6 µM, respectively.
The like results for `C=C[C@@]1(C)CC(=O)[C@]2(O)[C@@]3(C)[C@@H](OCc4cc(-c5c(OC)cc(OC)cc5OC)no4)CCC(C)(C)[C@@H]3[C@H](OC(C)=O)[C@H](O)[C@@]2(C)O1` were, in that order, above 100 µM and 0.5 µM.
In the case of `CC(=O)O[C@H]1[C@H]2C(C)(C)CC[C@H](OCc3cc(-c4ccc(C)cc4)no3)[C@]2(C)[C@@]2(O)C(=O)C[C@](C)(C3CC(c4ccc(C)cc4)=NO3)O[C@]2(C)[C@H]1O` (stereo partly specified), the IC50 in assay [1] is above 100 µM; in assay [2] it was 59 µM.
On to `C=C[C@@]1(C)CC(=O)[C@]2(O)[C@@]3(C)[C@@H](OCc4cc(-c5ccc(OC)c(OC)c5)no4)CCC(C)(C)[C@@H]3[C@H](OC(C)=O)[C@H](O)[C@@]2(C)O1`, for which the results for the 50% inhibitory concentration (IC50) in assay [1] and in assay [2] were 28.3 µM and 12 µM, respectively.
As to `C#CCO[C@H]1CCC(C)(C)[C@@H]2[C@H](O)[C@H](OC(C)=O)[C@@]3(C)O[C@@](C)(C=C)CC(=O)[C@]3(O)[C@@]12C`, the IC50 in assay [1] and in assay [2] was above 100 µM in each case.
`C=C[C@@]1(C)CC(=O)[C@]2(O)[C@@]3(C)[C@@H](OCc4cc(-c5ccc(OC)c(OC)c5)no4)CCC(C)(C)[C@@H]3[C@H](O)[C@H](OC(C)=O)[C@@]2(C)O1`: the IC50 in assay [1] is above 100 µM; in assay [2], 1.1 µM.
Regarding `COc1ccc(C2=NOC([C@@]3(C)CC(=O)[C@]4(O)[C@@]5(C)[C@@H](OCc6cc(-c7ccc(OC)cc7)no6)CCC(C)(C)[C@@H]5[C@H](OC(C)=O)[C@H](O)[C@@]4(C)O3)C2)cc1` (stereo partly specified), the results for the concentration for half-maximal inhibition (IC50) in assay [1] and in assay [2] were above 100 µM and 79.3 µM, respectively.
Regarding `C=C[C@@]1(C)CC(=O)[C@]2(O)[C@@]3(C)[C@@H](OCc4cc(-c5ccc(C)cc5)no4)CCC(C)(C)[C@@H]3[C@H](OC(C)=O)[C@H](O)[C@@]2(C)O1`, the IC50 was above 100 µM in assay [1] and 32 µM in assay [2].
The like results for `CC[C@@]1(C)CC(=O)[C@]2(O)[C@@]3(C)[C@@H](OCc4cc(-c5ccc(OC)c(OC)c5)no4)CCC(C)(C)[C@@H]3[C@H](O)[C@H](OC(C)=O)[C@@]2(C)O1` were, in that order, above 100 µM and 9.6 µM.
`CC[C@@]1(C)CC(=O)[C@]2(O)[C@@]3(C)[C@@H](OCc4cc(-c5ccc(OC)cc5)no4)CCC(C)(C)[C@@H]3[C@H](O)[C@H](OC(C)=O)[C@@]2(C)O1`: the result in assay [3] was Active. For the same compound, the IC50 in assay [1] is 2.1 µM; in assay [2], 0.5 µM.
`CC(=O)O[C@H]1[C@@H](O)[C@H]2C(C)(C)CC[C@H](OCc3cc(-c4ccc(C)cc4)no3)[C@]2(C)[C@@]2(O)C(=O)C[C@](C)(C3CC(c4ccc(C)cc4)=NO3)O[C@]12C` (stereo partly specified): the IC50 in assay [1] was above 100 µM; in assay [2], 5.6 µM.
As for `C=C[C@@]1(C)CC(=O)[C@]2(O)[C@@]3(C)[C@@H](OCc4cc(-c5ccccc5)no4)CCC(C)(C)[C@@H]3[C@H](O)[C@H](OC(C)=O)[C@@]2(C)O1`, in assay [3], the result was Active. Besides, the values for the IC50 in assay [1] and in assay [2] were 5 µM and 0.5 µM, respectively.
For the compound `C=C[C@@]1(C)CC(=O)[C@]2(O)[C@@]3(C)[C@@H](OCc4cc(-c5cc(OC)c(OC)c(OC)c5)no4)CCC(C)(C)[C@@H]3[C@H](OC(C)=O)[C@H](O)[C@@]2(C)O1`, the values for the IC50 in assay [1] and in assay [2] were above 100 µM and 4.4 µM, respectively.
